Measurements as given in ChEMBL document CHEMBL1201862, “PubChem BioAssay data set” (2004).
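In this assay, cells in 96-well plates receive the compound at five concentrations for 48 hours. Endpoints are linearly interpolated between the surrounding concentrations. GI50 = concentration required for 50% inhibition of growth.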 Active and inactive are the calls of the source. Cut-off read from the data, not from the text of the source: active = GI50 up to about 1.1 µM and inactive = higher.

Tests used:
Assay in all cases: inhibition of tumour cell growth, NCI panel, 48 h
A549 = test system: A549
DU-145 = test system: DU-145
SF-295 = test system: SF-295
HOP-62 = test system: HOP-62
SF-268 = test system: SF-268
HCT-116 = test system: HCT-116
ACHN = test system: ACHN
HOP-92 = test system: HOP-92
KM12 = test system: KM12
COLO 205 = test system: COLO 205
UACC-257 = test system: UACC-257
HCC 2998 = test system: HCC 2998
MOLT-4 = test system: MOLT-4
786-0 = test system: 786-0
PC-3 = test system: PC-3
HT-29 = test system: HT-29
T47D = test system: T47D
MDA-MB-435 = test system: MDA-MB-435
OVCAR-5 = test system: OVCAR-5
IGROV-1 = test system: IGROV-1
SW-620 = test system: SW-620
SN12C = test system: SN12C
TK-10 = test system: TK-10
U-251 = test system: U-251
OVCAR-4 = test system: OVCAR-4
OVCAR-8 = test system: OVCAR-8
NCI-H460 = test system: NCI-H460
HL-60 = test system: HL-60
SK-OV-3 = test system: SK-OV-3
NCI-H522 = test system: NCI-H522
MCF7 = test system: MCF7
M14 = test system: M14
NCI-H23 = test system: NCI-H23
MDA-MB-231 = test system: MDA-MB-231
NCI/ADR-RES = test system: NCI/ADR-RES
A498 = test system: A498
Hs-578T = test system: Hs-578T
K562 = test system: K562
MDA-N = test system: MDA-N
RPMI-8226 = test system: RPMI-8226
SR = test system: SR
CCRF-CEM = test system: CCRF-CEM
NCI-H226 = test system: NCI-H226
SK-MEL-5 = test system: SK-MEL-5
Malme-3M = test system: Malme-3M
UO-31 = test system: UO-31
OVCAR-3 = test system: OVCAR-3
LOX IMVI = test system: LOX IMVI
RXF 393 = test system: RXF 393
SNB-75 = test system: SNB-75
SNB-19 = test system: SNB-19
CAKI-1 = test system: CAKI-1
HCT-15 = test system: HCT-15
UACC-62 = test system: UACC-62
SK-MEL-28 = test system: SK-MEL-28
SK-MEL-2 = test system: SK-MEL-2
EKVX = test system: EKVX
SF-539 = test system: SF-539

For `Cc1ccc([N+](=O)[O-])c2c(NCCNC(=O)Cn3ccnc3[N+](=O)[O-])ccnc12`, the GI50 (A549) was 48.5 µM (inactive), the GI50 (DU-145) was 57.3 µM (inactive) and the GI50 (SF-295) was 20.5 µM (inactive). For the same molecule, the GI50 (HOP-62) was 20.7 µM (inactive), the GI50 (SF-268) was 36.5 µM (inactive) and the GI50 (HCT-116) was 43.7 µM (inactive). For the same molecule, the GI50 (ACHN) was 44.2 µM (inactive), the GI50 (HOP-92) was 26.5 µM (inactive) and the GI50 (KM12) was 52.2 µM (inactive). The GI50 (COLO 205) was 41 µM (inactive), the GI50 (UACC-257) was 29.1 µM (inactive) and the GI50 (HCC 2998) was 39.6 µM (inactive). For the same molecule, the GI50 (MOLT-4) was > 100 µM (inactive), the GI50 (786-0) was 34.8 µM (inactive) and the GI50 (PC-3) was 28.8 µM (inactive). The GI50 (HT-29) was 32.4 µM (inactive), the GI50 (T47D) was 35.2 µM (inactive) and the GI50 (MDA-MB-435) was 94.6 µM (inactive). For the same molecule, the GI50 (OVCAR-5) was 35.5 µM (inactive), the GI50 (IGROV-1) was 25.6 µM (inactive) and the GI50 (SW-620) was 37.7 µM (inactive). The GI50 (SN12C) was 38.3 µM (inactive), the GI50 (TK-10) was 88.3 µM (inactive) and the GI50 (U-251) was 36.6 µM (inactive). For the same molecule, the GI50 (OVCAR-4) was 33.3 µM (inactive), the GI50 (OVCAR-8) was 31.3 µM (inactive) and the GI50 (NCI-H460) was 28.2 µM (inactive). The GI50 (HL-60) was > 100 µM (inactive), the GI50 (SK-OV-3) was 21.6 µM (inactive) and the GI50 (NCI-H522) was 15.5 µM (inactive). The GI50 (MCF7) was 18.9 µM (inactive), the GI50 (M14) was > 100 µM (inactive) and the GI50 (NCI-H23) was 54.2 µM (inactive). For the same molecule, the GI50 (MDA-MB-231) was 32 µM (inactive), the GI50 (NCI/ADR-RES) was > 100 µM (inactive) and the GI50 (A498) was 31.6 µM (inactive). The GI50 (Hs-578T) was 28.3 µM (inactive), the GI50 (K562) was 64.1 µM (inactive) and the GI50 (MDA-N) was 69.5 µM (inactive). The GI50 (RPMI-8226) was 96.6 µM (inactive), the GI50 (SR) was > 100 µM (inactive) and the GI50 (CCRF-CEM) was > 100 µM (inactive). The GI50 (NCI-H226) was 26.2 µM (inactive), the GI50 (SK-MEL-5) was 17.8 µM (inactive) and the GI50 (Malme-3M) was 28.6 µM (inactive). For the same molecule, the GI50 (UO-31) was > 100 µM (inactive), the GI50 (OVCAR-3) was 23.2 µM (inactive) and the GI50 (LOX IMVI) was 45.8 µM (inactive). For the same molecule, the GI50 (RXF 393) was 1.42 µM (inactive), the GI50 (SNB-75) was > 100 µM (inactive) and the GI50 (SNB-19) was 28.9 µM (inactive). For the same molecule, the GI50 (CAKI-1) was 31.8 µM (inactive), the GI50 (HCT-15) was over 100 µM and the GI50 (UACC-62) was 22.7 µM (inactive). The GI50 (SK-MEL-28) was 57.7 µM (inactive), the GI50 (SK-MEL-2) was 43.6 µM (inactive) and the GI50 (EKVX) was > 100 µM (inactive). The GI50 (SF-539) was 35.5 µM (inactive).
